Test results: patent publication US20080089851A1, “Brown Algae Cell Lyophilisate, Method For The Obtention Thereof” (BIOTECHMARINE, priority 2005, published 2008)

Legend:
[1] = tested on: normal human keratinocytes; assay: Transport of proteins (albumin), normal human keratinocytes; assay type: cell-based; conditions: for Capture of albumin-FITC: S.D. 6 mg/ml
Method: The obtained microsomes from human keratinocytes in culture were rinsed 3 times with a buffer, afterwards pre-incubated in 1 ml of the same buffer for 30 minutes at 3° C. This solution was subsequently discarded and the microsomes were placed into the HBSS buffer containing albumin-FITC with stirring in a water bath at 37° C. The capture of albumin is stopped by addition of a Ringer's solution containing 122.5 mM NaCl; 5.4 mM KCl; 1.2 mM CaCl2; 0.8 mM MgCl2; 0.8 Na2HPO4; 0.2 NaHPO4; 5.5 mM glucose; 10 mM HEPES, pH 7,4. Afterwards, the microsomes were treated with Triton X-100 at (0.1% v/v in 3-(N-morpholino) propanesulfonic acid 20 mM, pH 7.4). The fluorescence was quantified with a spectrophotometer (excitation 480 nm: emission 520 nm). The kinetics of incubation was performed between 30 and 120 seconds. 7.2—Assessment of the Rate of Transport of Macromolecules at the Level of Normal Human Keratinocytes The applied method was that of explants allowing to obtain, from a biopsy of human skin, keratinocytes in primary cultures. The assays were carried out on keratinocytes between the 2nd and the 4th passage in order to ensure a reproductibility between the different experiences. The keratinocytes were divided into multiwell plates (6 wells) at a rate of 10^5 cells per well in 1 ml of culture medium […] supplemented with insulin and hydrocortisone. The cells were incubated in the presence and absence of the investigated product. 7.2.3—Transport of Proteins (Albumin) The assay was carried out in triplicate on normal human keratinocytes in culture. • Charge 1: negative control not receiving any product. • Charge 2: positive control (Nocodazole, 6 mg/ml) • Charge 3-5: treated receiving the investigated product (3 concentrations) • Charge 6-8: treated with Nocodazole, 6 mg/ml, and with the investigated product (3 concentrations) The treatment of keratinocytes with the BB product in the presence and absence of Nocodazole, 6 mg/ml, was carried out for 120 minutes at 37° C. The membrane microsomes were separated by differential centrifugation. The same protocol of capture of albumin-FITC was used for the determination of the rate of transport of albumin (cf. 3.1.4.2)

[2] = tested on: human keratinocytes in senescence; assay: Transport of proteins (albumin), human keratinocytes in senescence; assay type: cell-based; conditions: for Capture of albumin-FITC: ND 6 mg/ml
Method: The obtained microsomes from human keratinocytes in culture were rinsed 3 times with a buffer, afterwards pre-incubated in 1 ml of the same buffer for 30 minutes at 3° C. This solution was subsequently discarded and the microsomes were placed into the HBSS buffer containing albumin-FITC with stirring in a water bath at 37° C. The capture of albumin is stopped by addition of a Ringer's solution containing 122.5 mM NaCl; 5.4 mM KCl; 1.2 mM CaCl2; 0.8 mM MgCl2; 0.8 Na2HPO4; 0.2 NaHPO4; 5.5 mM glucose; 10 mM HEPES, pH 7,4. Afterwards, the microsomes were treated with Triton X-100 at (0.1% v/v in 3-(N-morpholino) propanesulfonic acid 20 mM, pH 7.4). The fluorescence was quantified with a spectrophotometer (excitation 480 nm: emission 520 nm). The kinetics of incubation was performed between 30 and 120 seconds.
7.3—Assessment of the Rate of Transport of Macromolecules at the Level of Human Keratinocytes in Senescence
The senescence is a phenomenon of cellular aging, where the cells are arrested in the phase G1 of the cell cycle and never enter the synthesis phase leading to the cell division. Senescent cells are characterized by their slow metabolism at synthesis and transport of macromolecules levels.
The cells in culture deprived of serum stop their growth, but continue to progress through the cell cycle until they reach the phase G1.
The applied method allowed to obtain, from a human skin biopsy, primary cultures of keratinocytes. The assays were performed on keratinocytes, between the 8th and the 10th passage, in order to ensure the presence of senescent cells at control cells level.
The keratinocytes were seeded in multiwell plates (6 wells) at a rate of 10^5 cells per well in 3 ml of culture medium […] supplemented with EGF, hydrocortisone, insulin and gentamicyn. Afterwards they are maintained for 5 days in incubator under CO2.
7.3.3—Transport of Proteins (Albumin)
The assay was carried out in triplicate on human keratinocytes in senescence. • Charge 1: negative control not receiving any product. • Charge 2: positive control (Nocodazole, 6 mg/ml) • Charge 3-5: treated receiving the investigated product (3 concentrations) • Charge 6-8: treated with Nocodazole, 6 mg/ml, and the investigated product (3 concentrations)
The treatment of keratinocytes with the BB product in the presence and absence of Nocodazole, 6 mg/ml, was carried out for 120 minutes at 37° C. The membrane microsomes were separated by differential centrifugation.
The same protocol of capture of albumin-FITC was applied to determine the rate of transport of albumin (cf. 6.1.3)

[3] = tested on: microsomes of human keratinocytes; assay: Transport of proteins (albumin), direct treatment of isolated microsomes; assay type: biochemical; conditions: for Capture of albumin-FITC: ND 6 mg/ml
Method: 7.1—Assessment of the Rate of Transport of Macromolecules (Glucids, Lipids and Proteins) in a System of Isolated Microsomes. Direct Effect of the BB Product on Isolated Microsomes: The microsomes of human keratinocytes form a membrane fraction obtained by high-speed differential centrifugation of a cell homogenate. This preparation of microsomes requires the addition of exogenous cofactors such as NADPH. 7.1.3—Transport of Proteins (Albumin) The assay was performed in triplicate after the direct treatment of microsomes. • Charge 1: negative control not receiving any product • Charge 2: positive control (Nocodazole, 6 mg/ml) • Charge 3-5: treated receiving the investigated product (3 concentrations) • Charge 6-8: treated with Nocodazole 6 mg/ml, and with the investigated product (3 concentrations) The obtained microsomes from human keratinocytes in culture were rinsed 3 times with a buffer, afterwards pre-incubated in 1 ml of the same buffer for 30 minutes at 3° C. This solution was subsequently discarded and the microsomes were placed into the HBSS buffer containing albumin-FITC with stirring in a water bath at 37° C. The capture of albumin is stopped by addition of a Ringer's solution containing 122.5 mM NaCl; 5.4 mM KCl; 1.2 mM CaCl2; 0.8 mM MgCl2; 0.8 Na2HPO4; 0.2 NaHPO4; 5.5 mM glucose; 10 mM HEPES, pH 7,4. Afterwards, the microsomes were treated with Triton X-100 at (0.1% v/v in 3-(N-morpholino) propanesulfonic acid 20 mM, pH 7.4). The fluorescence was quantified with a spectrophotometer (excitation 480 nm: emission 520 nm). The kinetics of incubation was performed between 30 and 120 seconds. The treatment of microsomes with the BB product alone or in the presence of Nocodazole (ND) were carried out at the same time as the introduction of albumin-FITC into the incubation medium. The assay of proteins was performed following the BRADFORD method. The increase in absorbance at 595 nm is proportional to the concentration of proteins measured with a spectrophotometer.

COC(=O)Nc1nc2ccc(C(=O)c3cccs3)cc2[nH]1 [ND, Nocodazole]
rate of transport of proteins (in words) ([1]; Nocodazole 6 mg/ml alone): inhibits | Capture of albumin-FITC ([1]; 30 s): 0.09 μg/mg proteins | Capture of albumin-FITC ([1]; 60 s): 0.22 μg/mg proteins | Capture of albumin-FITC ([1]; 90 s): 0.26 μg/mg proteins | Capture of albumin-FITC ([1]; 120 s): 0.37 μg/mg proteins | Capture of albumin-FITC ([2]; 30 s): 0.06 μg/mg of proteins | Capture of albumin-FITC ([2]; 60 s): 0.11 μg/mg of proteins | Capture of albumin-FITC ([2]; 90 s): 0.19 μg/mg of proteins | Capture of albumin-FITC ([2]; 120 s): 0.3 μg/mg of proteins | rate of transport of proteins (in words) ([2]; Nocodazole 6 mg/ml alone): inhibits | Capture of albumin-FITC ([3]; 30 s): 0.11 μg/mg proteins | Capture of albumin-FITC ([3]; 60 s): 0.29 μg/mg proteins | Capture of albumin-FITC ([3]; 90 s): 0.34 μg/mg proteins | Capture of albumin-FITC ([3]; 120 s): 0.43 μg/mg proteins | rate of transport of proteins (in words) ([3]; Nocodazole 6 mg/ml alone): strongly inhibits
